These results are taken from patent US9833487B2, “Composition for preventing and treating arthritic diseases” (priority 2008, dated 2017).

The subject of one assay is MMP-13 (collagenase-13). Nature of the assay: MMP-13 activity in human cartilage tissue medium. The assay is classed as cell-based. As to conditions: FIG. 14. The protocol:
(§1) The joint cartilage of human was provided from the patient who had taken artificial joint surgery (Orthopedics Surgery Dep. of Kyunghee Medical Center). […] The tissue was washed with the medium several times and then the articular tissue was cultured at 37° C. in humidified […] incubator. 1 or 2 days after the incubation, the medium was replaced with new basic medium containing inactivated 5% fetal bovine serum with heat treatment, 10 mM HEPES, and 100 unit/ml of penicillin-streptomycin, and 30 mg of the chondrocyte was transferred to 48-well plate. After culturing for 1 hour, 5 ng/μl of interleukin-1α (IL-1α, R&D system, USA) was added to the medium to induce inflammation and various concentrations of test sample (KM-1), ETCP (SK Chemicals), Celecoxib (CEL, Pfizer Co., USA), and Glucosamine (GLUCO, Sigma Co., USA), i.e., 0.1, 0.2, and 0.4 mg/ml, were added thereto respectively. […] In order to measure proteolytic activity, each 25 μl of medium was added to 96-well plate with 50 μl of the substrate to incubate at 37° C. for 1 hr and the optical density was measured by ELISA reader (Molecular devices, USA) at 450 nm. The activity of each sample on MMP-1 and MMP-13 was determined by calculating the MMP (%) of medium in each well.

Assay [1] deals with GAG degradation in human articular cartilage tissue. The assay is described as follows: Dissociation of glycosaminoglycan (DMB assay), IL-1α induced cartilage tissue. The assay is classed as cell-based. To be noted: 0.1, 0.2, 0.4 mg/ml, FIG. 12. The protocol: The joint cartilage of human was provided from the patient who had taken artificial joint surgery (Orthopedics Surgery Dep. of Kyunghee Medical Center). […] The tissue was washed with the medium several times and then the articular tissue was cultured at 37° C. in humidified […] incubator. 1 or 2 days after the incubation, the medium was replaced with new basic medium containing inactivated 5% fetal bovine serum with heat treatment, 10 mM HEPES, and 100 unit/ml of penicillin-streptomycin, and 30 mg of the chondrocyte was transferred to 48-well plate. After culturing for 1 hour, 5 ng/μl of interleukin-1α (IL-1α, R&D system, USA) was added to the medium to induce inflammation and various concentrations of test sample (KM-1), ETCP (SK Chemicals), Celecoxib (CEL, Pfizer Co., USA), and Glucosamine (GLUCO, Sigma Co., USA), i.e., 0.1, 0.2, and 0.4 mg/ml, were added thereto respectively. […] The concentration of GAG in the culture medium of cartilage tissue incubated with the procedure disclosed in Reference Example 3 was measured by determining the amount of polyanionic substance produced by being reacted with blyscan dye solution and chondroitin sulfate was used as a standard. […] The amount of spectroscopic GAG was determined at 540 nm and the inhibition rate was expressed based on the amount of degradated GAG induced by interleukin-1α (IL-1α).

The subject of assay [2] is type II collagen mRNA in cartilage tissue. Nature of the assay: Gene expression of Col II (RT-PCR). It is filed as cell-based, human. As to conditions: IL-1α treated cartilage tissue; FIG. 13. The protocol: (§2) The joint cartilage of human was provided from the patient who had taken artificial joint surgery (Orthopedics Surgery Dep. of Kyunghee Medical Center). […] The tissue was washed with the medium several times and then the articular tissue was cultured at 37° C. in humidified […] incubator. 1 or 2 days after the incubation, the medium was replaced with new basic medium containing inactivated 5% fetal bovine serum with heat treatment, 10 mM HEPES, and 100 unit/ml of penicillin-streptomycin, and 30 mg of the chondrocyte was transferred to 48-well plate. After culturing for 1 hour, 5 ng/μl of interleukin-1α (IL-1α, R&D system, USA) was added to the medium to induce inflammation and various concentrations of test sample (KM-1), ETCP (SK Chemicals), Celecoxib (CEL, Pfizer Co., USA), and Glucosamine (GLUCO, Sigma Co., USA), i.e., 0.1, 0.2, and 0.4 mg/ml, were added thereto respectively. […] The stained product was washed for 10 minutes with distilled water and the result was determined at UV wavelength (260 nm). The expression of proteoglycan and Col II gene collected from the cartilage tissue and chondrocytic cell of rabbit in above Reference Example 3 was determined and the test was performed by using reverse transcription polymerase chain reaction (RT-PCR) with the method disclosed in Reference Example 4.

A further assay has as its system pERK. Nature of the assay: MAPK phosphorylation (western blot), pERK. The assay is classed as cell-based, human. As to conditions: FIG. 18.
A further assay has as its system MMP-1 (collagenase-1). The assay is described as follows: MMP-1 activity in human cartilage tissue medium. The assay is classed as cell-based. As to conditions: FIG. 15. The protocol: as §1
The subject of another assay is pp 38. Nature of the assay: MAPK phosphorylation (western blot), pp38. The assay is classed as cell-based, human. As to conditions: FIG. 18. A general note: A western blot detects proteins with antibodies after separation by electrophoresis.
The test system of assay [3] is proteoglycan mRNA in cartilage tissue. The assay is described as follows: Gene expression of proteoglycan (RT-PCR). The assay is classed as cell-based, human. As to conditions: IL-1α treated cartilage tissue; FIG. 13. The protocol:
as §2

The subject of the next assay is pJNK. Nature of the assay: MAPK phosphorylation (western blot), pJNK. It is filed as cell-based, human. To be noted: FIG. 18.

As for `O=C(/C=C/c1ccc(O)c(O)c1)O[C@@H]1C[C@](O)(C(=O)O)C[C@@H](O)[C@H]1O` [chlorogenic acid], the “inhibition of MMP-13 activity” value with MMP-13 (collagenase-13) was “significantly inhibited the activity of collagenase MMP-1 and MMP-13 in a dose dependent manner”. Further, in assay [1], the “inhibition of the degradation of GAG” value is given as “potently inhibited the degradation of GAG”. Further, in assay [2], the “mRNA gene expression of type II collagen” value was “increased mRNA gene expression of proteoglycan and type II collagen”. The “inhibition of pERK” value with pERK was “inhibited the activity of pERK”. Besides, the “inhibition of MMP-1 activity” value with MMP-1 (collagenase-1) was “significantly inhibited the activity of collagenase MMP-1 and MMP-13 in a dose dependent manner”. Also, the “inhibition of pp 38” value with pp 38 is recorded as “potently inhibited”. The “mRNA gene expression of proteoglycan” value in assay [3] was “increased mRNA gene expression of proteoglycan and type II collagen”. Besides, the “inhibition of pJNK” value in the assay on pJNK is reported as “potently inhibited”.
